Measured values published in patent US20180015180A1, “SHORT AND D-AMINO ACID-CONTAINING POLYPEPTIDES FOR THERAPEUTIC CONJUGATES AND USES THEREOF” (AngioChem Inc., priority 2010, published 2018).
Ends that are not written are not given here.

What was measured:
pepsin = assay: Stability of oral formulations of Angiopep peptides in the presence of pepsin; type: in vitro ADME; details: pepsin (isolated enzyme); 1 mg/mL peptide; 1 mg/25 mL pepsin (diluted 41 times, pH=1.4); 37° C.
Experimental: The stability of oral formulations (1 mg/mL of Angiopep peptide) was determined in the presence of 1 mg/25 mL of pepsin (diluted 41 times, pH=1.4), an enzyme present in gastric fluid, at 37° C. Table 5 provides the half-life (t1/2) for degradation of various Angiopep peptides.

BBB = assay: In situ brain perfusion in mice with capillary depletion (transport across the BBB); type: in vivo; details: for crossing of the BBB (overall conclusion): mouse, in vivo
Experimental: The initial transport was measured as a function of time.

mice = assay: Induction of hypothermia (body temperature) after intravenous bolus; type: in vivo; details: Table 9 grades

Sequence of pepsin (P0DJD8 63-388): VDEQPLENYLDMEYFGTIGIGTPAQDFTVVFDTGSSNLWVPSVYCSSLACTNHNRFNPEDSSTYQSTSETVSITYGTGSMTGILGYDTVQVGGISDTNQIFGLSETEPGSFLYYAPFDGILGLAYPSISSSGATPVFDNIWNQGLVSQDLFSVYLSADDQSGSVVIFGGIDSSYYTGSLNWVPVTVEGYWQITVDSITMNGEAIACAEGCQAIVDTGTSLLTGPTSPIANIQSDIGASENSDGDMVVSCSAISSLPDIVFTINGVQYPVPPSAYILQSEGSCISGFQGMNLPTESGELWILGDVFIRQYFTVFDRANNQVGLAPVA

Compound | half-life at 1 mg/mL (pepsin) [min] | also measured
C[C@@H](O)[C@H](N)C(=O)N[C@@H](Cc1ccccc1)C(=O)N[C@@H](Cc1ccccc1)C(=O)N[C@@H](Cc1ccc(O)cc1)C(=O)NCC(=O)NCC(=O)N[C@@H](CO)C(=O)N[C@H](CCCNC(=N)N)C(=O)NCC(=O)N[C@H](CCCCN)C(=O)N[C@H](CCCNC(=N)N)C(=O)N[C@@H](CC(N)=O)C(=O)N[C@@H](CC(N)=O)C(=O)N[C@@H](Cc1ccccc1)C(=O)N[C@@H](CCCCN)C(=O)N[C@H](C(=O)N[C@@H](CCC(=O)O)C(=O)N[C@@H](CCC(=O)O)C(=O)N[C@@H](Cc1ccc(O)cc1)C(=O)O)[C@@H](C)O [Peptide 3D-An2] | 60 | 
CC[C@H](C)[C@H](NC(=O)[C@@H](Cc1ccc(O)cc1)NC(=O)[C@@H]1CCCN1C(=O)[C@H](CCCNC(=N)N)NC(=O)[C@H](CCCNC(=N)N)NC(=O)[C@H](CCCCNC(=O)CCCCCN1C(=O)CC(SC[C@H](NC(=O)[C@H](Cc2ccc(O)cc2)NC(=O)[C@H](CCC(=O)O)NC(=O)[C@H](CCC(=O)O)NC(=O)[C@@H](NC(=O)[C@H](CCCCN)NC(=O)[C@@H](Cc2ccccc2)NC(=O)[C@H](CC(N)=O)NC(=O)[C@H](CC(N)=O)NC(=O)[C@@H](CCCNC(=N)N)NC(=O)[C@H](N)CCCCN)[C@@H](C)O)C(N)=O)C1=O)NC(C)=O)C(=O)N[C@@H](CC(C)C)C(=O)O (stereo partly shown) [Peptide P5a-NT1] |  | brain uptake (BBB; in situ brain perfusion in mice, initial transport measured as a function of time): higher than for neurotensin (NT)
N=C(N)NCCC[C@H](NC(=O)[C@@H](N)CCCCN)C(=O)N[C@@H](CC(N)=O)C(=O)N[C@@H](CC(N)=O)C(=O)N[C@@H](Cc1ccccc1)C(=O)N[C@@H](CCCCN)C(=O)N[C@@H](Cc1ccc(O)cc1)C(=O)N[C@@H](CS)C(N)=O [Peptide P6] | > 240 | 
C[C@@H](O)[C@H](NC(=O)[C@H](CCCCN)NC(=O)[C@@H](Cc1ccccc1)NC(=O)[C@H](CC(N)=O)NC(=O)[C@H](CC(N)=O)NC(=O)[C@@H](CCCNC(=N)N)NC(=O)[C@H](N)CCCCN)C(=O)N[C@@H](CCC(=O)O)C(=O)N[C@@H](CCC(=O)O)C(=O)N[C@@H](Cc1ccc(O)cc1)C(=O)N[C@@H](CS)C(N)=O [Peptide P5a, D-Lys-D-Arg-Asn-Asn-D-Phe-Lys-Thr-Glu-Glu-Tyr-Cys] | 21 | 
TFFYGGSRG K R N N F KTEEY E L Y E N K P R R P Y I L (TFFYGGSRGKRNNFKTEEYELYENKPRRPYIL) [An2-NT, fusion protein] |  | Hypothermia (mice): ✓✓✓
FYGGSRGKRNNFKTEEYC-NH2 [Peptide P1] |  | crossing of the BBB (overall conclusion) (BBB): effectively cross the BBB
N=C(N)NCCC[C@@H](NC(=O)[C@H](N)CCCCN)C(=O)N[C@@H](CC(N)=O)C(=O)N[C@@H](CC(N)=O)C(=O)N[C@H](Cc1ccccc1)C(=O)N[C@@H](CCCCN)C(=O)N[C@@H](Cc1ccc(O)cc1)C(=O)N[C@@H](CS)C(N)=O [Peptide P6a, D-Lys-D-Arg-Asn-Asn-D-Phe-Lys-Tyr-Cys] | > 1080 | 
C[C@@H](O)[C@H](NC(=O)[C@H](CCCCN)NC(=O)[C@H](Cc1ccccc1)NC(=O)[C@H](CC(N)=O)NC(=O)[C@H](CC(N)=O)NC(=O)[C@H](CCCNC(=N)N)NC(=O)[C@@H](N)CCCCN)C(=O)N[C@@H](CCC(=O)O)C(=O)N[C@@H](CCC(=O)O)C(=O)N[C@@H](Cc1ccc(O)cc1)C(=O)N[C@@H](CS)C(N)=O [Peptide P5] | 24 | crossing of the BBB (overall conclusion) (BBB): effectively cross the BBB
C[C@@H](O)[C@H](N)C(=O)N[C@@H](Cc1ccccc1)C(=O)N[C@@H](Cc1ccccc1)C(=O)N[C@@H](Cc1ccc(O)cc1)C(=O)NCC(=O)NCC(=O)N[C@@H](CO)C(=O)N[C@@H](CCCNC(=N)N)C(=O)NCC(=O)N[C@@H](CCCCN)C(=O)N[C@@H](CCCNC(=N)N)C(=O)N[C@@H](CC(N)=O)C(=O)N[C@@H](CC(N)=O)C(=O)N[C@@H](Cc1ccccc1)C(=O)N[C@@H](CCCCN)C(=O)N[C@H](C(=O)N[C@@H](CCC(=O)O)C(=O)N[C@@H](CCC(=O)O)C(=O)N[C@@H](Cc1ccc(O)cc1)C(=O)O)[C@@H](C)O [An2, T F F Y G G S R G K R N N F K T E E Y, reference compound] | 40 | 
